Active and inactive are the calls of the source. The calls are words filed in the database; no cut-off is given here.
What was measured:
[1] = molecular target: T1, Suppressor of tumorigenicity 14 protein (Homo sapiens, UniProt Q9Y5Y6); assay: Inhibition of human matriptase measured after 15 mins at pH 8 by fluorescence assay
T1 sequence (Q9Y5Y6 whole entry): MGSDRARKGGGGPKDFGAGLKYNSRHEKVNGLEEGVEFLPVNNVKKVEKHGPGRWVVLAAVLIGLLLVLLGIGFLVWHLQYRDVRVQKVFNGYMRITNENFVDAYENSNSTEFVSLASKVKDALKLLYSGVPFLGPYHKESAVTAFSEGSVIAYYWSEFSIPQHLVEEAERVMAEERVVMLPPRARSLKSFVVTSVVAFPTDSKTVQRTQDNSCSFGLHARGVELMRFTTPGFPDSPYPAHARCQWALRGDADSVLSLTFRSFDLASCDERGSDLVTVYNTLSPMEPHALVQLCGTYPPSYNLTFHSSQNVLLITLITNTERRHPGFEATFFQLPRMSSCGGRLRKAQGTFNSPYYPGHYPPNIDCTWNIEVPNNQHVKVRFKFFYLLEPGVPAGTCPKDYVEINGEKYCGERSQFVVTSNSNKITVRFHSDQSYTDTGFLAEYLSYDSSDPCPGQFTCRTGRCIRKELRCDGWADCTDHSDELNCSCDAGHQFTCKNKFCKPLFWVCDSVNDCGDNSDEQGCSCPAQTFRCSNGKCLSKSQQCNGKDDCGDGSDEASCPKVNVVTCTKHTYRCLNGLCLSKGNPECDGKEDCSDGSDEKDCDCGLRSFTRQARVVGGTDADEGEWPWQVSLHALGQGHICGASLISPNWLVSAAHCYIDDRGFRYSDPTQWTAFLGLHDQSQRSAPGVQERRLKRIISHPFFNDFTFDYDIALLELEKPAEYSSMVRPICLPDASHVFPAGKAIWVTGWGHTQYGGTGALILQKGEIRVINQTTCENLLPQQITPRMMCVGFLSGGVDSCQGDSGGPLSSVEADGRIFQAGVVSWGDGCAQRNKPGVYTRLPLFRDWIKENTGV

Kallikrein-7 [2] = molecular target: T2, Kallikrein-7 (Homo sapiens, UniProt P49862); assay: Inhibition of human kallikrein 7 measured after 15 mins at pH 8 by fluorescence assay
Target sequence in this assay (P49862 whole entry): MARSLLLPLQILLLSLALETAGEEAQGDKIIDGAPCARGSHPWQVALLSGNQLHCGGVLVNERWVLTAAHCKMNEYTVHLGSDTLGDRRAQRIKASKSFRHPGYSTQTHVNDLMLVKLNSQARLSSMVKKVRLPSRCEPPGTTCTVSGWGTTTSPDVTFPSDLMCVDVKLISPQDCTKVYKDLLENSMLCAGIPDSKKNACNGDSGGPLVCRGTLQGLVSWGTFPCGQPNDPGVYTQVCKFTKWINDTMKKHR

Kallikrein-5 [3] = molecular target: T3, Kallikrein-5 (Homo sapiens, UniProt Q9Y337); assay: Inhibition of human kallikrein 5 measured after 15 mins at pH 8 by fluorescence assay
T3 sequence (Q9Y337 whole entry): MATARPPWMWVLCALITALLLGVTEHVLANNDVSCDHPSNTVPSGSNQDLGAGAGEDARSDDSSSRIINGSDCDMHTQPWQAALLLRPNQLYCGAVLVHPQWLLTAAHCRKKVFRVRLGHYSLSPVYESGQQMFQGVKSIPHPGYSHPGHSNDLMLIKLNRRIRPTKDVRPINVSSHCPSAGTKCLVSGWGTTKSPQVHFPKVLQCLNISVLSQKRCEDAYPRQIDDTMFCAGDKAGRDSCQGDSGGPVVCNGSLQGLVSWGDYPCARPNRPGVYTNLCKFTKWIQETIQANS

Kallikrein-14 = molecular target: T4, Kallikrein-14 (Homo sapiens, UniProt Q9P0G3); assay: Inhibition of human kallikrein 14 measured after 15 mins at pH 8 by fluorescence assay
T4 sequence (Q9P0G3 whole entry): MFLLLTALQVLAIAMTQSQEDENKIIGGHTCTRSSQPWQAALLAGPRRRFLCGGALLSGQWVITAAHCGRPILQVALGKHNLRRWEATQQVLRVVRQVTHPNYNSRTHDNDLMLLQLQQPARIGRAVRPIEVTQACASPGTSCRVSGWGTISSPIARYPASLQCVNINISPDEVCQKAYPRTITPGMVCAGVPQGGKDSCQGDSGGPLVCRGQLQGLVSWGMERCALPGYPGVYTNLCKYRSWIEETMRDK

Kallikrein-7 [4] = molecular target: T2, Kallikrein-7; assay: Binding affinity to human kallikrein 7 assessed as half life of deacylated enzyme
Target sequence in this assay (P49862 30-253 limits assumed): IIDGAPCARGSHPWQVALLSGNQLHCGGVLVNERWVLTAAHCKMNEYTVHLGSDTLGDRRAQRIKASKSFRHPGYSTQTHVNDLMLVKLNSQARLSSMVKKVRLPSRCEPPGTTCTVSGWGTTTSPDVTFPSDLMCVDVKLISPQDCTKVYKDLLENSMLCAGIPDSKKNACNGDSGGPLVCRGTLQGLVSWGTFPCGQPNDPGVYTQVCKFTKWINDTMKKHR

[5] = molecular target: T5, Suppressor of tumorigenicity 14 protein (Homo sapiens) (UniProt Q9Y5Y6); assay: Binding affinity to human matriptase assessed as half life of deacylated enzyme
T5 sequence (whole entry): T1 sequence (Q9Y5Y6 whole entry)

[6] = molecular target: T6, Kallikrein-14 (Homo sapiens) (UniProt Q9P0G3); assay: Binding affinity to human kallikrein 14 assessed as half life of deacylated enzyme
T6 sequence (whole entry): T4 sequence (Q9P0G3 whole entry)

Kallikrein-7 [7] = molecular target: T2, Kallikrein-7; assay: Binding affinity to human kallikrein 7 assessed as deacylation of enzyme relative to control
Target sequence in this assay (P49862 30-253 limits assumed): as above

[8] = Cytotoxicity against human keratinocytes at 1 to 10 uM after 48 hrs by neutral red uptake assay; assay type: cell-based; conditions: keratinocyte
[9] = molecular target: Kallikrein-5 (Homo sapiens) (UniProt Q9Y337); assay: Inhibition of human kallikrein 5 at 296 nM to 1 uM at pH 8 by fluorescence assay; conditions: TDE = time-dependent effect
Kallikrein-5 [10] = molecular target: T3, Kallikrein-5; assay: Inhibition of human kallikrein 5 measured after 15 mins at pH 8 by double-reciprocal plot analysis
[11] = molecular target: Kallikrein-5 (Homo sapiens) (UniProt Q9Y337); assay: Transient inhibition of human kallikrein 5 assessed as spontaneous reactivation up to 6 hrs
Kallikrein-7 [12] = molecular target: T2, Kallikrein-7; conditions: 296 nM
Target sequence in this assay (P49862 30-253 limits assumed): as above
Description: Inhibition of human kallikrein 7 at 296 nM to 1 uM at pH 8 by fluorescence assay

Kallikrein-7 [13] = molecular target: T2, Kallikrein-7; assay: Inhibition of human kallikrein 7 at 0.5 to 8 uM at pH 8 by fluorescence assay; conditions: TDE = time-dependent effect
Target sequence in this assay (P49862 30-253 limits assumed): as above

[14] = molecular target: Kallikrein-5 (Homo sapiens) (UniProt Q9Y337); assay: Binding affinity to human kallikrein 5 assessed as deacylation of enzyme relative to control
[15] = molecular target: Kallikrein-5 (Homo sapiens) (UniProt Q9Y337); assay: Inhibition of human kallikrein 5 at 0.5 to 8 uM at pH 8 by fluorescence assay; conditions: TDE = time-dependent effect

SMILES | IC50 (Kallikrein-7 [2]; read-out: IC50) [nM] | IC50 (Kallikrein-5 [3]; read-out: IC50) [nM] | IC50 ([1]; read-out: IC50) [nM] | IC50 (Kallikrein-14; read-out: IC50) [nM] | T1/2 [6] [min] | fold change (FC) (Kallikrein-7 [7]) | Activity [8] | also measured
Cc1ccc(C(=O)n2nc(-c3cccnc3)nc2N)cc1 | 40 | 270 | 570 | 1290 | 5 |  | Non-toxic | inhibition [9]: tde; Ki (Kallikrein-5 [10]): 4.4 µM; T1/2 [5]: 5 min; inhibition [11]: Active; inhibition (Kallikrein-7 [12]): tde
COc1ccc(C(=O)n2nc(-c3ccccc3)nc2N)cc1OC | 230 | 1300 | > 30000 | > 30000 |  | 0.2 |  | inhibition (Kallikrein-7 [13]): tde; fold change (FC) [14]: 4; inhibition [15]: tde
C/C(=C\c1ccccc1)C(=O)n1nnc2ccccc21 |  |  |  |  |  |  |  | IC50 [1]: Not Active; IC50 (Kallikrein-7 [2]): Not Active; IC50 (Kallikrein-5 [3]): Not Active; IC50 (Kallikrein-14): Not Active

More lines, in order of falling IC50 (Kallikrein-7 [2]; read-out: IC50), values ahead:

IC50 (Kallikrein-7 [2]; read-out: IC50) [nM] | IC50 (Kallikrein-5 [3]; read-out: IC50) [nM] | IC50 ([1]; read-out: IC50) [nM] | IC50 (Kallikrein-14; read-out: IC50) [nM] | T1/2 [6] [min] | fold change (FC) (Kallikrein-7 [7]) | SMILES | Activity [8] | also measured
3500 | > 30000 |  |  |  |  | Nc1nc(-c2cccnc2)nn1C(=O)c1ccc(Cl)cc1Cl |  | IC50 [1]: Not Active; IC50 (Kallikrein-14): Not Active
660 | 140 | 420 | 970 | 5 | 0.2 | CSc1nc(-c2ccc(Cl)cc2)nn1C(=O)c1ccccc1 | Non-toxic | T1/2 (Kallikrein-7 [4]): 39 min; T1/2 [5]: 5 min
610 | 990 | > 30000 | 3430 | 5 |  | COc1ccc(C(=O)n2cnnc2N)cc1 | Non-toxic | 
220 | 1140 | > 30000 | > 30000 |  | 2 | Nc1nc(-c2cccnc2)nn1C(=O)c1ccc(Cl)cc1 |  | fold change (FC) [14]: 8

— ChEMBL document CHEMBL2406906, “1,2,4-Triazole derivatives as transient inactivators of kallikreins involved in skin diseases” (Bioorg Med Chem Lett, 2013)
